Reference: patent US20030124718A1, “Vaccine composition” (priority 2001, published 2003)

How the values were obtained:
[1] = tested on: SIV-specific CD8+ T cell responses; test: IFNγ ELISPOT of epitope-specific CD8+ T cell responses in DNA-immunized / SIV-infected macaques; assay type: in vivo, rhesus macaques; settings: for Epitope-specific responses, Group A monkeys, 2 weeks post-SIV infection / Epitope-specific responses, Group A monkeys, Post-immunization, Pre-infection / Epitope-specific responses, Group C monkeys, 2 weeks post-SIV infection: ELISPOT; for Epitope-specific responses, Group A monkeys, 2 weeks post-SIV infection / Epitope-specific responses, Group A monkeys, Post-immunization, Pre-infection: Mamu-A*01 positive macaques immunized before and after infection; for Epitope-specific responses, Group A monkeys, Post-immunization, Pre-infection: after DNA immunization, before SIV infection; for CD8+ T cell response against peptide after DNA immunization: Group A monkeys, ELISPOT after 1st-4th DNA immunization; for Epitope-specific responses, Group C monkeys, 2 weeks post-SIV infection: Mamu-A*01 positive macaques immunized only after infection
Experimental: Each monkey received a total of 4 immunizations consisting of 32.0 μg DNA (3.2 μg of each DNA vector) per immunization spaced 4-8 weeks apart. The epitope specificity of the CD8+ T cell responses was determined by ELISPOT following the 1st, 2nd, 3rd or 4th DNA immunization.
ELISPOTs were performed essentially as described (Roy et al. 2000). Briefly, antibody pairs against rhesus monkey IFNγ (Cytech-BV, Amsterdam, The Netherlands) were used to measure the number of r cells that secrete IFNγ. PBMC were cultured at 2 different dilutions in 96 well nitrocellulose filter plates (Millipore) previously coated with anti-cytokine mAbs. ^2 μg/ml of the appropriate MamuA*01 CTL peptide or pepset (Chiron) was then added.
CD8+ T cell responses were measured by ELISPOT. In A*01 positive monkeys, the average cumulative ELISPOT was determined at each timepoint by measuring responses following stimulation with 10 representative epitopes included in the vaccine. In A*01 negative monkeys, cumulative ELISPOT values were determined using gag and tat peptide pools.

[2] = Table 1 characteristics, from references; cited from earlier work
[3] = tested on: MHC; settings: Table 1 characteristics, from references; cited from earlier work
[4] = tested on: SIV gag recombinant protein; test: Proliferation analysis of PBMC; assay type: in vivo, rhesus macaques; settings: proliferative responses to SIV gag
Experimental: At each time point PBMC were isolated from whole blood by density gradient centrifugation over Ficoll-Hypaque and resuspended in complete RPMI media containing 10% human serum (R10 medium). In 96-well flat bottom plates, 2×10^5 PBMC/well were incubated for 6 days with 0.2 μg/well protein in R10 media. PBMC were stimulated 10 μg/ml of SIV gag recombinant protein (Intracel). Sixteen hours before the end of the assay, each well was pulsed with 1 μCi ^3H-thymidine. Cells were harvested and the isotope incorporation measured by scintillation spectroscopy. All assays were performed in triplicates.
Proliferative responses to SIV gag were measured during combined PMPA+DNA vaccine therapy (weeks 0-28) and after discontinuation of therapy (weeks 30-46 to date).

[5] = tested on: SIV/DeltaB670; test: Plasma viral loads (real time PCR) after SIV challenge, PMPA + DNA vaccine immunotherapy

Compound	Epitope-specific responses, Group A monkeys, 2 weeks post-SIV infection [1]	Epitope-specific responses, Group A monkeys, Post-immunization, Pre-infection [1]	CD8+ T cell response against peptide after DNA immunization [1]	Epitope-specific responses, Group C monkeys, 2 weeks post-SIV infection [1]	immunogenicity [2]	other results
LAPVPIPFA [Gag372-380LA9]	+/+ (A + response = a minimum of 25 spot forming cells/1 × 10^6 PBMC was detected in at least 1 of the 8 monkeys per group)	+/+ (A + response = a minimum of 25 spot forming cells/1 × 10^6 PBMC was detected in at least 1 of the 8 monkeys per group)	Significant responses			
QVPSLQYLA [Vifl44-152QA9]	+/+ (A + response = a minimum of 25 spot forming cells/1 × 10^6 PBMC was detected in at least 1 of the 8 monkeys per group)	+/+ (A + response = a minimum of 25 spot forming cells/1 × 10^6 PBMC was detected in at least 1 of the 8 monkeys per group)	Significant responses	NA/+ (A + response = a minimum of 25 spot forming cells/1 × 10^6 PBMC was detected in at least 1 of the 8 monkeys per group)		
RIQRGPGRAFVTIGK					epitopes, highly	
CTPYDINQM [Gag181-189CM9]	+/+ (A + response = a minimum of 25 spot forming cells/1 × 10^6 PBMC was detected in at least 1 of the 8 monkeys per group)	+/+ (A + response = a minimum of 25 spot forming cells/1 × 10^6 PBMC was detected in at least 1 of the 8 monkeys per group)	Significant responses	NA/+ (A + response = a minimum of 25 spot forming cells/1 × 10^6 PBMC was detected in at least 1 of the 8 monkeys per group)		
TVPWPNASL [Env622-630TL9]	+/+ (A + response = a minimum of 25 spot forming cells/1 × 10^6 PBMC was detected in at least 1 of the 8 monkeys per group)	+/+ (A + response = a minimum of 25 spot forming cells/1 × 10^6 PBMC was detected in at least 1 of the 8 monkeys per group)	Significant responses			
ILKEPVHGVY					MHC, strong	binding affinity to MHC [3]: CTL epitope, high
STPESANL [Tat28-35SL8]	+/+ (A + response = a minimum of 25 spot forming cells/1 × 10^6 PBMC was detected in at least 1 of the 8 monkeys per group)	+/+ (A + response = a minimum of 25 spot forming cells/1 × 10^6 PBMC was detected in at least 1 of the 8 monkeys per group)	Significant responses	NA/+ (A + response = a minimum of 25 spot forming cells/1 × 10^6 PBMC was detected in at least 1 of the 8 monkeys per group)		
C[C@H](Cn1cnc2c(N)ncnc21)OCP(=O)(O)O [Group E]						Average Stimulation Index +/− SE post-therapy (wks 30-46) ([4]; after discontinuing therapy, weeks 30-46): 1.4 +/− 0.2; Average Stimulation Index +/− SE during therapy (wks 0-28) ([4]; combined PMPA + DNA vaccine therapy, weeks 0-28): 1.8 +/− 0.5; Geometric mean virus loads during therapy with DNA vaccines + PMPA (weeks 5-28) ([5]; weeks 5-28, during therapy): 7,192 no. of copies of viral RNA/ml plasma; Immunotherapeutic efficacy: number of monkeys maintaining virus loads at < 5000 viral RNA copies/ml plasma, during therapy (weeks 5-28) ([5]; weeks 5-28, during therapy with DNA vaccines + PMPA): 4/8; Geometric mean virus loads after discontinuation of drug and vaccine therapy (weeks 30-46) ([5]; weeks 30-46, after discontinuation): 38,428 no. of copies of viral RNA/ml plasma; Immunotherapeutic efficacy: number of monkeys maintaining virus loads at < 5000 viral RNA copies/ml plasma, after discontinuation (weeks 30-46) ([5]; weeks 30-46, after discontinuation of drug and vaccine therapy): 1/8
LLWKGEGAV					MHC, strong	binding affinity to MHC [3]: CTL epitope, high
GSPAIFQYTM [Pol359-365GM10]	+/+ (A + response = a minimum of 25 spot forming cells/1 × 10^6 PBMC was detected in at least 1 of the 8 monkeys per group)	+/+ (A + response = a minimum of 25 spot forming cells/1 × 10^6 PBMC was detected in at least 1 of the 8 monkeys per group)	Significant responses			
CAPPGYALL [Env235-243CL9]	+/+ (A + response = a minimum of 25 spot forming cells/1 × 10^6 PBMC was detected in at least 1 of the 8 monkeys per group)	+/+ (A + response = a minimum of 25 spot forming cells/1 × 10^6 PBMC was detected in at least 1 of the 8 monkeys per group)	Significant responses	NA/+ (A + response = a minimum of 25 spot forming cells/1 × 10^6 PBMC was detected in at least 1 of the 8 monkeys per group)		
FRKQNPDIVIYQYMDDLYVG					epitope, strong	
